# Structures can show the parent of a compound that is named as a salt. Where two headings read alike, the source gives them in different places.
# Assays:
# [1] = Solubility in water of salts (and free bases); assay type: physicochemical; details: for solubility: water
# serum lipoproteins = assay: Effect on serum lipoproteins of normolipemic male rats in a subchronic experiment; assay type: in vivo; details: Rattus norvegicus, po, by stomach tube, 7 administrations; for change in vivo at 100 mg/kg: 100 mg/kg/day; for change in vivo at 3 mg/kg: 3 mg/kg/day; for change in vivo at 10 mg/kg: 10 mg/kg/day; for change in vivo at 30 mg/kg: 30 mg/kg/day
# Procedure: 3. In vivo, the increased LDL receptor activity in experimental animals is reflected by reduction in the lipoprotein fractions which can be metabolized by the LDL receptor (apoB/E receptor), i.e. a reduction in the LDL and VLDL levels is observed. The following test was carried out:
# Effect on serum lipoproteins of normolipemic male rats in a subchronic experiment
# Groups of in each case 10 male rats of the HOE: WISKf (SPF 71) strain with an initial weight above 180 g received once a day (in the morning) the test product or the comparison product in 1% aqueous ®Tylose MH 300 solution by stomach tube (0.5 ml/100 g of body weight); the control group in each case received only the vehicle. The last (7th) administration took place 24 hours before removal of blood and sacrifice. There was free access to food and water during the test. The food was withdrawn 24 hours before the removal of blood.
# The serum from all 10 rats in a group was pooled for the analysis of the serum lipoproteins. The serum lipoproteins were separated with a preparative ultracentrifuge (KONTRON TGA 65, Rotor BECKMAN 50.4 Ti).
# The following conditions specified by Koga, S., Horwitz, D. L., and Scanu, A. M., Journal of Lipid Research 10, 577 (1969) and Havel, R. J., Eder, H. A., and Bragdon, H. H., J. Clin. Invest. 34, 1345 (1955) were used to separate VLDL and LDL: 1. VLDL: Density<1.006, 40,000 rpm for 16 hours 2. LDL: Density 1.006-1.04, 40,000 rmp for 16 hours
# Test kits from BOEHRINGER/Mannheim were used for the enzymatic determination of cholesterol and triglycerides in the separated lipoprotein fractions (cf. Siedel, J., Schlumberger, H., Klose, S., Ziegenhorn, J. and Wahlefeld, A. W., J. Clin. Chem. Clin. Biochem. 19, 838 (1981) and Wahlefeld, A. W., in: H. O. Bergmeier: Methoden der enzymatischen Analyse (Methods of Enzymatic Analysis), 2nd edition, Volume II, Verlag Chemie 1974, page 1878). The proteins were determined by the method of Lowry (Lowry, O. H., Roseborough, N. H., Farr, A. L. and Randell, R. J., J. Biol. Chem. 193, 265 (1951)).
# Clofibrate was used as comparison product.
# [2] = Table 2, salts of compounds I, temp. by No. [°C]: 1 25.5, 2 23.0, 3 22.4, 4 22.4, 5 22.0, 6 25.0, 7 25.5, 8 25.5, 9 25.5, 10 23.5, 11 23.5, 12 25.0, 13 24.0, 14 23.0, 15 22.0, 16 24.5, 17 22.5, 18 22.0
# [3] = Table 2, salts of compounds I, temp. by No. [°C]: 1 25.5, 2 23.0, 3 22.4, 4 22.4, 5 22.0, 6 25.0, 7 25.5, 8 25.5, 9 25.5, 10 23.5, 11 23.5, 12 25.0, 13 24.0, 14 23.0, 15 22.0, 16 24.5, 17 22.5, 18 22.0, read-out: Solubility in water, Concentration in % by wt.
# [4] = Table 1, N-H analogs, temp. by No. [°C]: 1 25.0, 2 23.0, 3 26.2, 4 25.1, 5 25.2, 6 24.1, 7 24.5, 8 24.2, 9 24.2, 10 25.7, 11 25.8
# [5] = read-out: Serum LDL cholesterol, % change from control at end of treatment
# [6] = read-out: Serum LDL protein, % change from control at end of treatment
# [7] = read-out: Serum VLDL cholesterol, % change from control at end of treatment
# [8] = read-out: Serum VLDL protein, % change from control at end of treatment
# [9] = read-out: Serum VLDL triglycerides, % change from control at end of treatment
# [10] = Table 2, salts of compounds I, temp. by No. [°C]: 1 25.5, 2 23.0, 3 22.4, 4 22.4, 5 22.0, 6 25.0, 7 25.5, 8 25.5, 9 25.5, 10 23.5, 11 23.5, 12 25.0, 13 24.0, 14 23.0, 15 22.0, 16 24.5, 17 22.5, 18 22.0, nitrate
# [11] = Table 1, N-H analogs, temp. by No. [°C]: 1 25.0, 2 23.0, 3 26.2, 4 25.1, 5 25.2, 6 24.1, 7 24.5, 8 24.2, 9 24.2, 10 25.7, 11 25.8, read-out: Solubility in water, Concentration in % by wt.
# [12] = Table 1, N-H analogs, temp. by No. [°C]: 1 25.0, 2 23.0, 3 26.2, 4 25.1, 5 25.2, 6 24.1, 7 24.5, 8 24.2, 9 24.2, 10 25.7, 11 25.8, read-out: Solubility in water, Molarity × 10^-3
"solubility [1, 11] [µg/mL]","solubility [1, 12] [µM]",SMILES,change in vivo at 30 mg/kg (serum lipoproteins; [5]) [%],change in vivo at 30 mg/kg (serum lipoproteins; [6]) [%],change in vivo at 30 mg/kg (serum lipoproteins; [7]) [%],change in vivo at 30 mg/kg (serum lipoproteins; [8]) [%],change in vivo at 30 mg/kg (serum lipoproteins; [9]) [%],further results
–,–,"CCN(C(=O)c1cnc(N2CC(C)(C)NC2=O)nc1N)c1cccc(C(F)(F)F)c1 [Example 1, 4-amino-2-(4,4-dimethyl-2-oxo-1-imidazolidinyl)pyrimidine-5-carboxylic acid N-ethyl-N-(3-trifluoromethylphenyl)amide]",–,–,–,–,–,"1 part by mass dissolves in ... parts by H2O [1, 2]: 13.5 parts by H2 O; solubility [1, 3]: 68900 µg/mL"
–,–,"CC1(C)CN(c2ncc(C(=O)Nc3cccc(C(F)(F)F)c3)c(N)n2)C(=O)N1 [No. 2 (Table 1), reference compound]",–,–,–,–,–,"Solubility in water, Molarity × 10^-3 [1, 4]: 0.90 Molarity × 10^-3"
–,–,"CCOC(=O)C(C)(C)Oc1ccc(Cl)cc1 [Clofibrate, reference compound]",–,–,–,–,–,change in vivo at 100 mg/kg (serum lipoproteins; [5]): -31%; change in vivo at 100 mg/kg (serum lipoproteins; [6]): -3%; change in vivo at 100 mg/kg (serum lipoproteins; [7]): -51%; change in vivo at 100 mg/kg (serum lipoproteins; [8]): -30%; change in vivo at 100 mg/kg (serum lipoproteins; [9]): -34%
–,–,"CCN(C(=O)c1cnc(N2CC(C)(C)NC2=O)nc1N)c1cc(C(F)(F)F)ccc1F [Example 60, 4-amino-2-(4,4-dimethyl-2-oxo-1-imidazolidinyl)pyrimidine-5-carboxylic acid N-ethyl-N-(2-fluoro-5-trifluoromethylphenyl)amide nitrate]",–,–,–,–,–,"1 part by mass dissolves in ... parts by H2O [1, 10]: 57.5 parts by H2 O; Solubility in water, Concentration in % by wt. [1, 10]: 1.71 % by wt.; solubility ([1]; temperature not stated, read-out: soluble in a concentration in water): 17000 µg/mL"
–,–,CC1(C)CN(c2ncc(C(=O)N(c3cccc(C(F)(F)F)c3)C3CCCC3)c(N)n2)C(=O)N1 [No. 8 (Table 2)],–,–,–,–,–,"1 part by mass dissolves in ... parts by H2O [1, 2]: 60.6 parts by H2 O; solubility [1, 3]: 16200 µg/mL"
1300,2590,"CCCC1(C)CN(c2ncc(C(=O)Nc3cc(C(F)(F)F)ccc3Cl)c(N)n2)C(=O)N1 (stereo not drawn) [No. 8 (Table 1), reference compound]",–,–,–,–,–,"1 part by mass dissolves in ... parts of H2O [1, 4]: 781 parts of H2 O"
–,–,"CCCCN(C(=O)c1cnc(N2CC(C)(C)NC2=O)nc1N)c1cccc(C(F)(F)F)c1 [Example 6, 4-amino-2-(4,4-dimethyl-2-oxo-1-imidazolidinyl)pyrimidine-5-carboxylic acid N-butyl-N-(3-trifluromethylphenyl)amide hydrochloride]",-62,-36,41,-41,-69,change in vivo at 3 mg/kg (serum lipoproteins; [5]): -24%; change in vivo at 3 mg/kg (serum lipoproteins; [6]): -3%; change in vivo at 3 mg/kg (serum lipoproteins; [7]): -35%; change in vivo at 3 mg/kg (serum lipoproteins; [8]): -12%; change in vivo at 10 mg/kg (serum lipoproteins; [5]): -20%; change in vivo at 10 mg/kg (serum lipoproteins; [6]): -62%; change in vivo at 10 mg/kg (serum lipoproteins; [7]): -35%; change in vivo at 10 mg/kg (serum lipoproteins; [8]): -15%
3600,8380,"CC1NC(=O)N(c2ncc(C(=O)Nc3cccc(C(F)(F)F)c3)c(N)n2)C1C (stereo not drawn) [No. 11 (Table 1), reference compound]",–,–,–,–,–,"1 part by mass dissolves in ... parts of H2O [1, 4]: 277 parts of H2 O"
1000,2030,"CC1(C)CN(c2ncc(C(=O)Nc3ccc(Cl)c(C(F)(F)F)c3)c(N)n2)C(=O)N1 [No. 5 (Table 1), reference compound]",–,–,–,–,–,–
4600,9910,"CC1(C)CN(c2ncc(C(=O)Nc3cc(C(F)(F)F)ccc3Cl)c(N)n2)C(=O)N1 [No. 4 (Table 1), reference compound]",–,–,–,–,–,"1 part by mass dissolves in ... parts of H2O [1, 4]: 217 parts of H2 O"
1300,2800,"CCCC1(C)CN(c2ncc(C(=O)Nc3ccc(Cl)c(C(F)(F)F)c3)c(N)n2)C(=O)N1 (stereo not drawn) [No. 9 (Table 1), reference compound]",–,–,–,–,–,–
–,–,CC(C)CN(C(=O)c1cnc(N2CC(C)(C)NC2=O)nc1N)c1cccc(C(F)(F)F)c1 [Example 36],-38,-5,-65,-33,42,–
–,–,CC1(C)CN(c2ncc(C(=O)N(CC3CC3)c3cc(C(F)(F)F)ccc3F)c(N)n2)C(=O)N1 [Example 41],-66,-36,-100,-45,-80,change in vivo at 10 mg/kg (serum lipoproteins; [5]): -73%; change in vivo at 10 mg/kg (serum lipoproteins; [6]): -48%; change in vivo at 10 mg/kg (serum lipoproteins; [7]): -100%; change in vivo at 10 mg/kg (serum lipoproteins; [8]): -52%; change in vivo at 10 mg/kg (serum lipoproteins; [9]): -68%
–,–,CN(C(=O)c1cnc(N2CC(C)(C)NC2=O)nc1N)c1cc(C(F)(F)F)ccc1Cl [Example 29],-51,-27,-80,40,-70,–
–,–,CN(C(=O)c1cnc(N2CC(C)(C)NC2=O)nc1N)c1ccc(Br)c(C(F)(F)F)c1 [Example 30],–,–,–,–,–,change in vivo at 10 mg/kg (serum lipoproteins; [5]): -25%; change in vivo at 10 mg/kg (serum lipoproteins; [6]): -19%; change in vivo at 10 mg/kg (serum lipoproteins; [7]): -29%; change in vivo at 10 mg/kg (serum lipoproteins; [8]): -36%; change in vivo at 10 mg/kg (serum lipoproteins; [9]): 7%
–,–,"CCCCN(C(=O)c1cnc(N2CCNC2=O)nc1N)c1cccc(C(F)(F)F)c1 [Example 55, 4-amino-2-(2-oxo-1-imidazolidinyl)pyrimidine-5-carboxylic acid N-butyl-N-(3-trifluoromethylphenyl)amide hydrochloride]",-29,-9,-14,-18,-20,–
